From US20230278958A1 (Merck Patent GmbH, priority 2020, published 2023)

Experiments:
YAP-TEAD interaction = experiment: SK-HEP-1 reporter assay (8x TEAD responsive elements driving NanoLuc luciferase); format: cell-based; conditions: Homo sapiens, SK-HEP1; SK-HEP-1 TEAD-NanoLuc reporter cells, 24 hour incubation, luciferase readout
Procedure: To identify inhibitors of YAP-TEAD interaction, 8× TEAD responsive elements driving the NanoLuc® luciferase gene were stably integrated into SK-HEP-1 cells (ECACC #: 91091816).
For the assay, cells were treated in duplicates with the test compounds in a 10-point dose, with the top concentration starting at 30 μM (final concentration in assay). After a 24 hour incubation at 37° C., 95% rH, and 5% CO2, a luciferase substrate/lysis reagent mix (NanoGlo™, Promega) was added to the cells, allowing the quantification of cellular luciferase activity.
Cell Media: The cells were cultured in the following media: MEM, +10% FBS, +1× GlutaMAX, +1 mM Sodium-Pyruvate, +100 μM Non-essential amino acids, +0.1 mg/ml Hygromycin. The media used for the assay was: MEM (w/o Phenol Red), +10% FBS, +1× GlutaMAX, +1 mM Sodium-Pyruvate, +100 μM Non-essential amino acids, +0.5% Pen/Strep
(§1) Reagents: The reagents used are listed below:
(§2) Cell culture: The cells were examined using an inverted microscope to check for health and cell density. To dissociate adherent cells, the monolayer of cells was washed once with pre-warmed PBS. After removing the PBS, 3 ml pre-warmed Accutase® was added to a F75 flask, dispersed evenly and the flask was allowed to sit in incubator for ˜4-5 minutes.
(§3) When a single cell suspension was obtained, 7 ml of prewarmed growth media was added and resuspended with the cells. The cell suspension was transferred to a sterile 15 ml conical centrifuge tube, and spun for 5 min at 300×g, RT. The supernatant was discarded and the pellet was resuspended in 10 ml of pre-warmed growth media.
(§4) The total cell count was determined, and 20 μl of the desired cell number was added to each well of a 384 well plate using a Multidrop Combi. The plates were then incubated for 24 hours at 37° C., 95% rH, and 5% CO2.
(§5) Compound treatment: 24 hours after seeding, the cells were treated with compounds.
(§6) A 1:333 dilution of compounds, diluted in DMSO, was made to get a final concentration of 0.3% DMSO per well. To transfer the compounds to the assay plate, 120 nl was shot from Labcyte low dead volume plates to the cell plates containing 20 μl media/well with the ECHO 555 liquid handling system.
(§7) After treatment, the cells were fed with 20 μl fresh pre-warmed assay media using a Multidrop combi.
The assay plates were then incubated for another 24 h at 37° C., 95% rH, and 5% CO2.
Luciferase readout: 24 h after treatment, the plates were taken out of the incubator and were allowed to equilibrate to RT. 30 μl of NanoGlo® reagent was added to the plates in the dark. Plates were shaken for 20 min on a Teleshake (˜1500 rpm) in the dark. The luminescence was then measured using an EnVision microplate reader. The IC50 values were generated using Genedata Screener®.
Experimental data in SK-HEP-1 reporter assay of the compounds shown in Table 1 are shown in Table 2 below and classified in the following groups: […]

NCI-H226 cells = experiment: Viability assay in NCI-H226 (Yap-dependent) cells, CyQUANT; format: cell-based; conditions: Homo sapiens, 96 hour incubation
Procedure: The ability of YAP-TEAD inhibitors to inhibit tumor cell growth was evaluated using two different cell lines: NCI-H226, which is a YAP dependent cell line, and SW620 cells, where YAP and TAZ were knocked out using CRISPR to generate a YAP independent cell line.
For the assay, cells were treated in duplicates with the test compounds in a 10-point dose, 1:3 dilution steps, with the top concentration starting at 30 μM (final concentration in assay). After a 96 hour incubation at 37° C., 95% rH, and 5% CO2, a cell-permeant DNA-binding dye that stains only healthy cells (CyQUANT®, Promega) was added to the cells, allowing the quantification of cell viability.
Cell Media: The NCI-H226 cells were cultured in the following media: RPMI 1640, +10% FBS, +1× GlutaMAX, +10 mM HEPES, +0.5% Pen/Strep. The SW620-KO cells were cultured in the following media: DMEM/F-12, +10% FBS, +1× GlutaMAX, +10 mM HEPES, +0.5% Pen/Strep.
as §1
as §2, with “health,” for “health and”, “density, etc.” for “density.”, “Accutase” for “Accutase®”
as §3, §4, §5, §6, §7
The assay plates were then incubated for 96 h at 37° C., 95% rH, and 5% CO2.
96h after treatment 30 μl of CyQuant® reagent was added to the assay plates using a Multidrop combi in the dark. The plates were then incubated for 1 hour at 37° C., 95% rH and 5% CO2. Thereafter, the assay plates were removed from the incubator and allowed to equilibrate to RT for 30 min in the dark without lid. Finally, they were measured using an EnVision microplate reader with a FITC bottom read program.
Experimental data in the Viability assay of the compounds shown in Table 1 are shown in Table 3 below and classified in the following groups: […]

| IC50 (YAP-TEAD interaction) | IC50 (NCI-H226 cells) | SMILES |
| --- | --- | --- |
| 10 to 100 nM | 0.001 to 0.1 µM | Cc1ccc2c(c1)c1cc(C(=O)NC(C)CO)ccc1n2-c1ccc(C(F)(F)F)cc1 (stereo not drawn) [Compound 39, N-(1-hydroxypropan-2-yl)-6-methyl-9-[4-(trifluoromethyl)phenyl]-9H-carbazole-3-carboxamide] |
| 10 to 100 nM | 0.001 to 0.1 µM | Cc1ccc2c(c1)c1cc(C(=O)NCC(C)O)ccc1n2-c1ccc(C(F)(F)F)cc1 (stereo not drawn) [Compound 40, N-(2-hydroxypropyl)-6-methyl-9-[4-(trifluoromethyl)phenyl]-9H-carbazole-3-carboxamide] |
| 100 to 1000 nM | 0.1 to 1 µM | Cc1ccc2c(c1)c1cc(C(=O)NC(CO)C(C)C)ccc1n2-c1ccc(C(F)(F)F)cc1 (stereo not drawn) [Compound 41, N-(1-hydroxy-3-methylbutan-2-yl)-6-methyl-9-[4-(trifluoromethyl)phenyl]-9H-carbazole-3-carboxamide] |
| 10 to 100 nM | 0.001 to 0.1 µM | CCC(CO)NC(=O)c1ccc2c(c1)c1cc(C)ccc1n2-c1ccc(C(F)(F)F)cc1 (stereo not drawn) [Compound 42] |
| 100 to 1000 nM | 0.1 to 1 µM | Cc1ccc2c(c1)c1cc(C(=O)NCC(C)(C)O)ccc1n2-c1ccc(C(F)(F)F)cc1 [Compound 43, N-(2-hydroxy-2-methylpropyl)-6-methyl-9-[4-(trifluoromethyl)phenyl]-9H-carbazole-3-carboxamide] |
| 100 to 1000 nM | 0.1 to 1 µM | Cc1ccc2c(c1)c1cc(C(=O)NCCn3ccnc3)ccc1n2-c1ccc(C(F)(F)F)cc1 [Compound 44, 6-Methyl-9-(4-trifluoromethyl-phenyl)-9H-carbazole-3-carboxylic acid (2-imidazol-1-yl-ethyl)-amide] |
| 100 to 1000 nM | 0.1 to 1 µM | Cc1ccc2c(c1)c1cc(C(=O)NCc3nccn3C)ccc1n2-c1ccc(C(F)(F)F)cc1 [Compound 45] |
| 100 to 1000 nM | 0.1 to 1 µM | Cc1ccc2c(c1)c1cc(C(=O)N[C@](C)(CO)c3ccccc3)ccc1n2-c1ccc(C(F)(F)F)cc1 [Compound 46, N-[(2S)-1-hydroxy-2-phenylpropan-2-yl]-6-methyl-9-[4-(trifluoromethyl)phenyl]-9H-carbazole-3-carboxamide] |
| 1 to 10 nM | 0.001 to 0.1 µM | CCc1ccc2c(c1)c1cc(C(=O)O)ccc1n2-c1ccc(C(F)(F)F)cc1 [Compound 47, 6-ethyl-9-[4-(trifluoromethyl)phenyl]-9H-carbazole-3-carboxylic acid] |
| 10 to 100 nM | 0.1 to 1 µM | Cc1ccc2c(c1)c1cc(C(N)=O)ccc1n2-c1ccc(C(F)(F)F)cc1 [Compound 48, 6-methyl-9-[4-(trifluoromethyl)phenyl]-9H-carbazole-3-carboxamide] |
| 100 to 1000 nM | 0.1 to 1 µM | Cc1ccc2c(c1)c1cc(C(=O)N3CCC(O)C3)ccc1n2-c1ccc(C(F)(F)F)cc1 (stereo not drawn) [Compound 49, 1-{6-methyl-9-[4-(trifluoromethyl)phenyl]-9H-carbazole-3-carbonyl}pyrrolidin-3-ol] |
| 100 to 1000 nM | 0.1 to 1 µM | Cc1ccc2c(c1)c1cc(C(=O)N3CCCC(O)C3)ccc1n2-c1ccc(C(F)(F)F)cc1 (stereo not drawn) [Compound 50, 1-{6-methyl-9-[4-(trifluoromethyl)phenyl]-9H-carbazole-3-carbonyl}piperidin-3-ol] |
| 100 to 1000 nM | 0.1 to 1 µM | Cc1ccc2c(c1)c1cc(C(=O)NCc3ccccn3)ccc1n2-c1ccc(C(F)(F)F)cc1 [Compound 51, 6-methyl-N-[(pyridin-2-yl)methyl]-9-[4-(trifluoromethyl)phenyl]-9H-carbazole-3-carboxamide] |
| 100 to 1000 nM | 0.001 to 0.1 µM | Cc1ccc2c(c1)c1cc(C(=O)NCc3cccnc3)ccc1n2-c1ccc(C(F)(F)F)cc1 [Compound 52, 6-methyl-N-[(pyridin-3-yl)methyl]-9-[4-(trifluoromethyl)phenyl]-9H-carbazole-3-carboxamide] |
| 10 to 100 nM | 0.001 to 0.1 µM | Cc1ccc2c(c1)c1cc(C(=O)NCc3ccncn3)ccc1n2-c1ccc(C(F)(F)F)cc1 [Compound 53, 6-methyl-N-[(pyrimidin-4-yl)methyl]-9-[4-(trifluoromethyl)phenyl]-9H-carbazole-3-carboxamide] |
| 100 to 1000 nM | 0.1 to 1 µM | Cc1ccc2c(c1)c1cc(C(=O)NC3(CO)CCC3)ccc1n2-c1ccc(C(F)(F)F)cc1 [Compound 54, N-[1-(hydroxymethyl)cyclobutyl]-6-methyl-9-[4-(trifluoromethyl)phenyl]-9H-carbazole-3-carboxamide] |
| 10 to 100 nM | 0.001 to 0.1 µM | Cc1ccc2c(c1)c1cc(C(=O)NCC(O)CO)ccc1n2-c1ccc(C(F)(F)F)cc1 (stereo not drawn) [Compound 55, N-(2,3-dihydroxypropyl)-6-methyl-9-[4-(trifluoromethyl)phenyl]-9H-carbazole-3-carboxamide] |
| 10 to 100 nM | 0.001 to 0.1 µM | Cc1ccc2c(c1)c1cc(C(=O)N[C@@H](CO)C3CCC3)ccc1n2-c1ccc(C(F)(F)F)cc1 [Compound 56, N-[(1R)-1-cyclobutyl-2-hydroxyethyl]-6-methyl-9-[4-(trifluoromethyl)phenyl]-9H-carbazole-3-carboxamide] |
| 100 to 1000 nM | 0.1 to 1 µM | Cc1ccc2c(c1)c1cc(C(=O)N[C@H]3COC[C@@H]3O)ccc1n2-c1ccc(C(F)(F)F)cc1 [Compound 57, N-[(3S,4R)-4-hydroxyoxolan-3-yl]-6-methyl-9-[4-(trifluoromethyl)phenyl]-9H-carbazole-3-carboxamide] |
| 100 to 1000 nM | 0.1 to 1 µM | Cc1ccc2c(c1)c1cc(C(=O)N[C@H](c3ccccc3)[C@H](C)O)ccc1n2-c1ccc(C(F)(F)F)cc1 [Compound 58, N-[(1R,2S)-2-hydroxy-1-phenylpropyl]-6-methyl-9-[4-(trifluoromethyl)phenyl]-9H-carbazole-3-carboxamide] |
| 10 to 100 nM | 0.1 to 1 µM | Cc1ccc2c(c1)c1cc(C(=O)NCc3ccncc3)ccc1n2-c1ccc(C(F)(F)F)cc1 [Compound 59, 6-methyl-N-[(pyridin-4-yl)methyl]-9-[4-(trifluoromethyl)phenyl]-9H-carbazole-3-carboxamide] |
| 100 to 1000 nM | 0.1 to 1 µM | COCCC(CO)NC(=O)c1ccc2c(c1)c1cc(C)ccc1n2-c1ccc(C(F)(F)F)cc1 (stereo not drawn) [Compound 61, N-(1-hydroxy-4-methoxybutan-2-yl)-6-methyl-9-[4-(trifluoromethyl)phenyl]-9H-carbazole-3-carboxamide] |
| 1 to 10 nM | 0.1 to 1 µM | Cc1cc2c3cc(C(=O)O)ccc3n(-c3ccc(C(F)(F)F)cc3)c2cc1C [Compound 62, 6,7-dimethyl-9-[4-(trifluoromethyl)phenyl]-9H-carbazole-3-carboxylic acid] |
| 1 to 10 nM | 1 to 10 µM | Cc1ccc2c(c1)c1cc(C(=O)O)ccc1n2-c1ccc(OC(F)(F)F)cc1 [Compound 63, 6-methyl-9-[4-(trifluoromethoxy)phenyl]-9H-carbazole-3-carboxylic acid] |
